Data published in patent US10155788B2, “Cationic steroidal antimicrobial prodrug compositions and uses thereof” (BRIGHAM YOUNG UNIVERSITY, priority 2014, dated 2018).
Converted amounts (≈) assume the structure as drawn.

Key:
[1] = test system: ATCC 25923 strain of staphylococcus aureus; assay: Minimum inhibitory concentration against staph A; assay type: cell-based; conditions: ATCC25923; staphylococcus aureus ATCC 25923
Protocol: The pharmacological analysis of the methane sulfonate prodrug of CSA-13 (CSA-13 MS) versus the free base CSA-13 compound was assessed for their antimicrobial properties against the ATCC 25923 strain of staphylococcus aureus (hereinafter “staph A”).

C57BL/6 female mice = assay: Maximum Tolerated Dose study of CSA-192 MS, intravenous, in mice; assay type: in vivo; conditions: for mortality and abnormal clinical signs: 7 days observation
Excerpt: The objective of this study was to determine the Maximum Tolerated Dose (MTD) of CSA-192 MS following intravenous (i.v.) administration at various dose levels in C57BL/6 female mice. FIG. 2 is a graph showing CSA-192 MS Kinetics.
Immunocompetent C57BL/6 female mice weighing 16 to 20 g were obtained from the University of Sevilla's facility. The number of animals that were selected for use in this study was considered to be the minimum requirement to meet rational scientific endpoints.
One the first day of the study, mice were subjected to randomization and allocated to different groups, so that each group (G) contains 6 females. Each cage housed 6 mice. Each cage was identified by a cage card, with details like study item, species, strain, sex, number of animals, date, dose, and investigator name.
The study was conducted at four different dose levels. On day 1 of treatment all the animals in G1, G2, G3, and G4 groups were administered with CSA-192 MS at 4, 8, 16, and 32 mg/kg based on their body weight. Dose volumes were maintained at 0.2 mL for G1, G2, and G3. The dose volume for G4 was 0.32 mL.
More particularly, the test item was administered by intravenous route, at dose concentration of 4 mg/kg body weight for G1, 8 mg/kg body weight for G2, 16 mg/kg body weight for G3, and 32 mg/kg body weight G4 groups, respectively. Dose volumes were maintained at 0.2 mL for G1, G2, and G3. For group G4 the dose volume was 0.32 mL.
The first day they were checked immediately after dose administration, at 30 min, 1 hour, and every 4 hours, the following days twice a day. Mice were sacrificed on day 7 of the study period.

CCCCCCCCNCCC[C@@H](C)[C@H]1CC[C@H]2[C@@H]3[C@H](OCCCN)C[C@@H]4C[C@H](OCCCN)CC[C@]4(C)[C@H]3C[C@H](OCCCN)[C@]12C [CSA-13]
MIC [1]: 1.6 µg/mL (≈ 2.36 µM)

CCCCCCCCNC(=O)CC[C@@H](C)[C@H]1CC[C@H]2[C@@H]3[C@H](OCCCN)C[C@@H]4C[C@H](OCCCN)CC[C@]4(C)[C@H]3C[C@H](OCCCN)[C@]12C [CSA-192 MS]
mortality and abnormal clinical signs (C57BL/6 female mice; 4.0 mg/kg body weight (G1), intravenously): no incidences of mortality and abnormal clinical signs
mortality and abnormal clinical signs (C57BL/6 female mice; 8.0 mg/kg body weight (G2), intravenously): no incidences of mortality and abnormal clinical signs
clinical signs (C57BL/6 female mice; 16.0 mg/kg body weight (G3), intravenously, immediately after administration, disappeared after an hour, rest of G3 without signs): one animal showed signs of somnolence
mortality and abnormal clinical signs (C57BL/6 female mice; 32.0 mg/kg body weight (G4), intravenously): no incidences of mortality and abnormal clinical signs
Clinical observations/No of animals per group (C57BL/6 female mice; G1 4 mg/Kg i.v., Day 1): 0/6
No of animals found dead/No. of animals per group (C57BL/6 female mice; G1 4 mg/Kg i.v., Day 1): 0/6
Clinical observations/No of animals per group (C57BL/6 female mice; G1 4 mg/Kg i.v., Day 2): 0/6
No of animals found dead/No. of animals per group (C57BL/6 female mice; G1 4 mg/Kg i.v., Day 2): 0/6
Clinical observations/No of animals per group (C57BL/6 female mice; G1 4 mg/Kg i.v., Day 3): 0/6
No of animals found dead/No. of animals per group (C57BL/6 female mice; G1 4 mg/Kg i.v., Day 3): 0/6
Clinical observations/No of animals per group (C57BL/6 female mice; G1 4 mg/Kg i.v., Day 4): 0/6
No of animals found dead/No. of animals per group (C57BL/6 female mice; G1 4 mg/Kg i.v., Day 4): 0/6
Clinical observations/No of animals per group (C57BL/6 female mice; G1 4 mg/Kg i.v., Day 5): 0/6
No of animals found dead/No. of animals per group (C57BL/6 female mice; G1 4 mg/Kg i.v., Day 5): 0/6
Clinical observations/No of animals per group (C57BL/6 female mice; G1 4 mg/Kg i.v., Day 6): 0/6
No of animals found dead/No. of animals per group (C57BL/6 female mice; G1 4 mg/Kg i.v., Day 6): 0/6
Clinical observations/No of animals per group (C57BL/6 female mice; G1 4 mg/Kg i.v., Day 7): 0/6
No of animals found dead/No. of animals per group (C57BL/6 female mice; G1 4 mg/Kg i.v., Day 7): 0/6
Clinical observations/No of animals per group (C57BL/6 female mice; G2 8 mg/kg i.v., Day 1): 0/6
No of animals found dead/No. of animals per group (C57BL/6 female mice; G2 8 mg/kg i.v., Day 1): 0/6
Clinical observations/No of animals per group (C57BL/6 female mice; G2 8 mg/kg i.v., Day 2): 0/6
No of animals found dead/No. of animals per group (C57BL/6 female mice; G2 8 mg/kg i.v., Day 2): 0/6
Clinical observations/No of animals per group (C57BL/6 female mice; G2 8 mg/kg i.v., Day 3): 0/6
No of animals found dead/No. of animals per group (C57BL/6 female mice; G2 8 mg/kg i.v., Day 3): 0/6
Clinical observations/No of animals per group (C57BL/6 female mice; G2 8 mg/kg i.v., Day 4): 0/6
No of animals found dead/No. of animals per group (C57BL/6 female mice; G2 8 mg/kg i.v., Day 4): 0/6
Clinical observations/No of animals per group (C57BL/6 female mice; G2 8 mg/kg i.v., Day 5): 0/6
No of animals found dead/No. of animals per group (C57BL/6 female mice; G2 8 mg/kg i.v., Day 5): 0/6
Clinical observations/No of animals per group (C57BL/6 female mice; G2 8 mg/kg i.v., Day 6): 0/6
No of animals found dead/No. of animals per group (C57BL/6 female mice; G2 8 mg/kg i.v., Day 6): 0/6
Clinical observations/No of animals per group (C57BL/6 female mice; G2 8 mg/kg i.v., Day 7): 0/6
No of animals found dead/No. of animals per group (C57BL/6 female mice; G2 8 mg/kg i.v., Day 7): 0/6
Clinical observations/No of animals per group (C57BL/6 female mice; G3 16 mg/kg i.v., Day 1): 1/6
No of animals found dead/No. of animals per group (C57BL/6 female mice; G3 16 mg/kg i.v., Day 1): 0/6
Clinical observations/No of animals per group (C57BL/6 female mice; G3 16 mg/kg i.v., Day 2): 0/6
No of animals found dead/No. of animals per group (C57BL/6 female mice; G3 16 mg/kg i.v., Day 2): 0/6
Clinical observations/No of animals per group (C57BL/6 female mice; G3 16 mg/kg i.v., Day 3): 0/6
No of animals found dead/No. of animals per group (C57BL/6 female mice; G3 16 mg/kg i.v., Day 3): 0/6
Clinical observations/No of animals per group (C57BL/6 female mice; G3 16 mg/kg i.v., Day 4): 0/6
No of animals found dead/No. of animals per group (C57BL/6 female mice; G3 16 mg/kg i.v., Day 4): 0/6
Clinical observations/No of animals per group (C57BL/6 female mice; G3 16 mg/kg i.v., Day 5): 0/6
No of animals found dead/No. of animals per group (C57BL/6 female mice; G3 16 mg/kg i.v., Day 5): 0/6
Clinical observations/No of animals per group (C57BL/6 female mice; G3 16 mg/kg i.v., Day 6): 0/6
No of animals found dead/No. of animals per group (C57BL/6 female mice; G3 16 mg/kg i.v., Day 6): 0/6
Clinical observations/No of animals per group (C57BL/6 female mice; G3 16 mg/kg i.v., Day 7): 0/6
No of animals found dead/No. of animals per group (C57BL/6 female mice; G3 16 mg/kg i.v., Day 7): 0/6
Clinical observations/No of animals per group (C57BL/6 female mice; G4 32 mg/kg i.v., Day 1): 0/6
No of animals found dead/No. of animals per group (C57BL/6 female mice; G4 32 mg/kg i.v., Day 1): 0/6
Clinical observations/No of animals per group (C57BL/6 female mice; G4 32 mg/kg i.v., Day 2): 0/6
No of animals found dead/No. of animals per group (C57BL/6 female mice; G4 32 mg/kg i.v., Day 2): 0/6
Clinical observations/No of animals per group (C57BL/6 female mice; G4 32 mg/kg i.v., Day 3): 0/6
No of animals found dead/No. of animals per group (C57BL/6 female mice; G4 32 mg/kg i.v., Day 3): 0/6
Clinical observations/No of animals per group (C57BL/6 female mice; G4 32 mg/kg i.v., Day 4): 0/6
No of animals found dead/No. of animals per group (C57BL/6 female mice; G4 32 mg/kg i.v., Day 4): 0/6
Clinical observations/No of animals per group (C57BL/6 female mice; G4 32 mg/kg i.v., Day 5): 0/6
No of animals found dead/No. of animals per group (C57BL/6 female mice; G4 32 mg/kg i.v., Day 5): 0/6
Clinical observations/No of animals per group (C57BL/6 female mice; G4 32 mg/kg i.v., Day 6): 0/6
No of animals found dead/No. of animals per group (C57BL/6 female mice; G4 32 mg/kg i.v., Day 6): 0/6
Clinical observations/No of animals per group (C57BL/6 female mice; G4 32 mg/kg i.v., Day 7): 0/6
No of animals found dead/No. of animals per group (C57BL/6 female mice; G4 32 mg/kg i.v., Day 7): 0/6
treatment related change in body weight (C57BL/6 female mice; all groups (4, 8, 16, 32 mg/kg i.v.)): No treatment related change in body weight was observed
mortality (C57BL/6 female mice; any of the groups (4, 8, 16, 32 mg/kg i.v.), 7 days): no mortality was observed
